Data as given in patent publication US20260200942A1, “PARP7 INHIBITORS AND THEIR APPLICATIONS” (CHONGQING PHARSCIN INNOBIO CO., LTD., priority 2023, published 2026).

Legend:
PARP7 = target: T1, PARP7 (Homo sapiens, UniProt Q7Z3E1); assay: PARP7 inhibitory activity assay (histone-coated 384-well plate, chemiluminescence); assay type: biochemical
T1 construct: purchased BPS 80527
T1 sequence (Q7Z3E1 1-657): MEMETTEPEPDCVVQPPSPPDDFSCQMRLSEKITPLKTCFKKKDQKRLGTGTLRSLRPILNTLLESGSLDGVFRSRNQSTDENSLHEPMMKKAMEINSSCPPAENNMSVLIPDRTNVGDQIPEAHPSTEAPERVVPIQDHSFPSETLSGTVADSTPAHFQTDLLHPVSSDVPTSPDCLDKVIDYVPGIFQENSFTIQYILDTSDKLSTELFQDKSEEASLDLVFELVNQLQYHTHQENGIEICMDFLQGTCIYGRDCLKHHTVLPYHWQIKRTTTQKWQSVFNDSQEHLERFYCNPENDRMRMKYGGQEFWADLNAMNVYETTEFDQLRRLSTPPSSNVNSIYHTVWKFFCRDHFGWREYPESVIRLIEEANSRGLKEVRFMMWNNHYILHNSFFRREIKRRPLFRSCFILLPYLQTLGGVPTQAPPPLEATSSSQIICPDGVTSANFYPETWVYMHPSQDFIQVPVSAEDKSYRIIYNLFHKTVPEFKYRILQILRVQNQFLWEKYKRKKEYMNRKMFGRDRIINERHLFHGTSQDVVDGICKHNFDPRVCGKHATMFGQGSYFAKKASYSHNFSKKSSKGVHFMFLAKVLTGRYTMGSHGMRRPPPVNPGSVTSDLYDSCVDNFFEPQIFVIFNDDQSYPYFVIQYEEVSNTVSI
From the text: Inhibition rate (%) calculation formula: […]

PARP2 = target: T2, PARP2 (Homo sapiens, UniProt Q9UGN5); assay: PARP2 inhibitory activity assay (BPS PARP2 Chemiluminescent Activity Assay Kit); assay type: biochemical
T2 construct: purchased BPS Bioscience
From the text: The PARP2 enzyme activity assay method used in the present disclosure employs reagents from the PARP2 Chemiluminescent Activity Assay Kit from BPS Bioscience, USA. […] The test results are shown in Table 1. /” indicates not tested.

T2 sequence (Q9UGN5 whole entry): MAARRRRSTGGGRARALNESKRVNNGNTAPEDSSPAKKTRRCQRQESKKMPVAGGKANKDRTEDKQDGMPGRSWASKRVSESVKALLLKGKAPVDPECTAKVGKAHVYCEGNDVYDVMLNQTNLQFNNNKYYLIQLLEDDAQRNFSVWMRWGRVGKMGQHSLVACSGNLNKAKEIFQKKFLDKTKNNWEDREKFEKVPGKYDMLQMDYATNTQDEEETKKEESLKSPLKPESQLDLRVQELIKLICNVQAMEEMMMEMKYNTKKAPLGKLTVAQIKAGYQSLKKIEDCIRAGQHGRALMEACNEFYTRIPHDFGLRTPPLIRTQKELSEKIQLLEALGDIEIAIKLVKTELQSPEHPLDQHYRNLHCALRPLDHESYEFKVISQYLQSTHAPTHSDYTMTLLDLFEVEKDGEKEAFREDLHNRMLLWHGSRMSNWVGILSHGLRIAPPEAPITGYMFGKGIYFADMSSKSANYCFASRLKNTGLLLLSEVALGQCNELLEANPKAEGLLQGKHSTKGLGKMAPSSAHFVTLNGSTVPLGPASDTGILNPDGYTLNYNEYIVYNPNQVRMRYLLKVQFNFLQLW

Row | Compound | IC50 (PARP7) [nM] | IC50 (PARP2) [nM]
1 | COc1cc(C(F)(F)F)cnc1N1CCN(C(=O)[C@H]2C[C@H](NCc3cc(C(F)(F)F)c(=O)[nH]n3)C2)CC1 [Embodiment 45] | 10 to 100 | 
2 | COc1cc(C(F)(F)F)cnc1N1CCN(C(=O)C2CN(Cc3cc(C(F)(F)F)c(=O)[nH]n3)C2)CC1 [Embodiment 46, 6-((3-(4-(3-methoxy-5-(trifluoromethyl)pyridin-2-yl)piperazine-1-carbonyl)azetidin-1-yl)methyl)-4-(trifluoromethyl)pyridazin-3(2H)-one] | < 10 | 10 to 100
3 | N#Cc1cc(C(F)(F)F)cnc1N1CCN(C(=O)[C@H]2C[C@H](NCc3cc(C(F)(F)F)c(=O)[nH]n3)C2)CC1 [Embodiment 47, 2-(4-((1R,3R)-3-(((6-oxo-5-(trifluoromethyl)-1,6-dihydropyridazin-3-yl)methyl)amino)cyclobutane-1-carbonyl)piperazin-1-yl)-5-(trifluoromethyl)nicotinonitrile] | 10 to 100 | 
4 | CC(C)(N[C@H]1C[C@H](C(=O)N2CCN(c3ncc(C(F)(F)F)cn3)CC2)C1)c1cc(C(F)(F)F)c(=O)[nH]n1 [Embodiment 48] | < 10 | 10 to 100
5 | CC(C)(c1cc(C(F)(F)F)c(=O)[nH]n1)N1CC(C(=O)N2CCN(c3ncc(C(F)(F)F)cn3)CC2)C1 [Embodiment 49, 4-(trifluoromethyl)-6-(2-(3-(4-(5-(trifluoromethyl)pyrimidin-2-yl)piperazine-1-carbonyl)azetidin-1-yl)propan-2-yl)pyridazin-3(2H)-one] | 10 to 100 | 
6 | N#Cc1cc(C(F)(F)F)cnc1N1CCN(C(=O)C2CC(NCc3cc(C(F)(F)F)c(=O)[nH]n3)C2)CC1 [Embodiment 50, 2-(4-((1R,3R)-3-(((6-oxo-5-(trifluoromethyl)-1,6-dihydropyridazin-3-yl)methyl)amino)cyclobutane-1-carbonyl)piperazin-1-yl)-5-(trifluoromethyl)nicotinonitrile] | 10 to 100 | 
7 | O=C(C1CN(Cc2n[nH]c(=O)cc2OC2CCC2)C1)N1CCN(c2ncc(C(F)(F)F)cn2)CC1 [Embodiment 51, 5-cyclobutoxy-6-((3-(4-(5-(trifluoromethyl)pyrimidin-2-yl)piperazine-1-carbonyl)azetidin-1-yl)methyl)pyridazin-3(2H)-one] | 100 to 1000 | 
8 | O=c1cc(OC2CCC2)c(CN[C@H]2C[C@H](C(=O)N3CCN(c4ncc(C(F)(F)F)cn4)CC3)C2)n[nH]1 [Embodiment 52] | 10 to 100 | 
9 | Cc1cc(C(F)(F)F)cnc1N1CCN(C(=O)[C@H]2C[C@H](NCc3cc(C(F)(F)F)c(=O)[nH]n3)C2)CC1 [Embodiment 53] | 10 to 100 | 
10 | O=C(C1CN(Cc2n[nH]c(=O)cc2C(F)(F)F)C1)N1CCN(c2ncc(C(F)(F)F)cn2)CC1 [Embodiment 54, 5-(trifluoromethyl)-6-((3-(4-(5-(trifluoromethyl)pyrimidin-2-yl)piperazine-1-carbonyl)azetidin-1-yl)methyl)pyridazin-3(2H)-one] | 100 to 1000 | 
11 | O=c1cc(C(F)(F)F)c(CN[C@H]2C[C@H](C(=O)N3CCN(c4ncc(C(F)(F)F)cn4)CC3)C2)n[nH]1 [Embodiment 55] | 1000 to 10000 | 
12 | O=c1[nH]nc(CN[C@H]2C[C@H](C(=O)N3CCN(c4ncc(C(F)(F)F)cc4C4CC4)CC3)C2)cc1C(F)(F)F [Embodiment 56] | 10 to 100 | 
13 | COc1cc(N2CCN(C(=O)C3CN(Cc4cc(C(F)(F)F)c(=O)[nH]n4)C3)CC2)ncc1C(F)(F)F [Embodiment 57, 6-((3-(4-(4-methoxy-5-(trifluoromethyl)pyridin-2-yl)piperazine-1-carbonyl)azetidin-1-yl)methyl)-4-(trifluoromethyl)pyridazin-3(2H)-one] | < 10 | 
14 | CCOc1cc(C(F)(F)F)cnc1N1CCN(C(=O)[C@H]2C[C@H](NC(C)(C)c3cc(C(F)(F)F)c(=O)[nH]n3)C2)CC1 [Embodiment 58] | 10 to 100 | 
15 | COc1cc(C(F)(F)F)cnc1N1CCN(C(=O)[C@H]2C[C@H](NC(C)(C)c3cc(C(F)(F)F)c(=O)[nH]n3)C2)CC1 [Embodiment 59] | 10 to 100 | 
16 | CC(C)(N[C@H]1C[C@H](C(=O)N2CCN(c3ncc(C(F)(F)F)cc3C(N)=O)CC2)C1)c1cc(C(F)(F)F)c(=O)[nH]n1 [Embodiment 60, 2-(4-((1R,3R)-3-((2-(6-oxo-5-(trifluoromethyl)-1,6-dihydropyridazin-3-yl)propan-2-yl)amino)cyclobutane-1-carbonyl)piperazin-1-yl)-5-(trifluoromethyl)nicotinamide] | < 10 | 100 to 1000
17 | NC(=O)c1cc(C(F)(F)F)cnc1N1CCN(C(=O)[C@H]2C[C@H](NCc3cc(C(F)(F)F)c(=O)[nH]n3)C2)CC1 [Embodiment 62, 2-(4-((1R,3R)-3-(((6-oxo-5-(trifluoromethyl)-1,6-dihydropyridazin-3-yl)methyl)amino)cyclobutane-1-carbonyl)piperazin-1-yl)-5-(trifluoromethyl)nicotinamide] | < 10 | 10 to 100
18 | CC(C)(N[C@H]1C[C@H](C(=O)N2CCN(c3ncc(C(F)(F)F)c4cc[nH]c34)CC2)C1)c1cc(C(F)(F)F)c(=O)[nH]n1 [Embodiment 64, 4-(trifluoromethyl)-6-(2-(((1R,3R)-3-(4-(4-(trifluoromethyl)-1H-pyrrolo[2,3-c]pyridin-7-yl)piperazine-1-carbonyl)cyclobutyl)amino)propan-2-yl)pyridazin-3(2H)-one] | < 10 | 100 to 1000
19 | Cn1ccc2c(C(F)(F)F)cnc(N3CCN(C(=O)[C@H]4C[C@H](NC(C)(C)c5cc(C(F)(F)F)c(=O)[nH]n5)C4)CC3)c21 [Embodiment 65, 6-(2-(((1R,3R)-3-(4-(1-methyl-4-(trifluoromethyl)-1H-pyrrolo[2,3-c]pyridin-7-yl)piperazine-1-carbonyl)cyclobutyl)amino)propan-2-yl)-4-(trifluoromethyl)pyridazin-3(2H)-one] |  | 100 to 1000
20 | CC(C)(N[C@H]1C[C@H](C(=O)N2CCN(c3ncc(C(F)(F)F)cc3C(=O)N3CCCC3)CC2)C1)c1cc(C(F)(F)F)c(=O)[nH]n1 [Embodiment 66] | 10 to 100 | 
21 | CNC(=O)c1cc(C(F)(F)F)cnc1N1CCN(C(=O)[C@H]2C[C@H](NC(C)(C)c3cc(C(F)(F)F)c(=O)[nH]n3)C2)CC1 [Embodiment 67, N-methyl-2-(4-((1R,3R)-3-((2-(6-oxo-5-(trifluoromethyl)-1,6-dihydropyridazin-3-yl)propan-2-yl)amino)cyclobutane-1-carbonyl)piperazin-1-yl)-5-(trifluoromethyl)nicotinamide] | < 10 | 100 to 1000
22 | Cc1cc2c(C(F)(F)F)cnc(N3CCN(C(=O)[C@H]4C[C@H](NC(C)(C)c5cc(C(F)(F)F)c(=O)[nH]n5)C4)CC3)c2[nH]1 [Embodiment 68, 6-(2-(((1R,3R)-3-(4-(2-methyl-4-(trifluoromethyl)-1H-pyrrolo[2,3-c]pyridin-7-yl)piperazine-1-carbonyl)cyclobutyl)amino)propan-2-yl)-4-(trifluoromethyl)pyridazin-3(2H)-one] | < 10 | 
